In US6677368B2, “4-aryl substituted indolinones” (Sugen, Inc., priority 2000, dated 2004) one finds IC50 data, which are given here for four molecules.

pIC50: −log10 of the molar value.

Holding throughout (assay type): biochemical
The target in experiment [1] is FGFR1 (Homo sapiens, UniProt P11362). The experiment is described as follows: FGFR1 bioassay (ELISA, in vitro kinase activity). To be noted: purified GST-FGFR1, poly(Glu-Tyr) substrate. The method, then:
This assay is used to measure the in vitro kinase activity of FGF1-R in an ELISA assay.
1. Costar 96-well ELISA plates (Corning Catalog #3369).
2. Poly(Glu-Tyr) (Sigma Catalog #P0275).
4. 50 mM Hepes Buffer Solution.
5. Blocking Buffer (5% BSA/PBS).
6. Purified GST-FGFR1 (SUGEN, Inc.)
7. Kinase Dilution Buffer. Mix 500 μl 1M Hepes (GIBCO), 20 μl 5% BSA/PBS, 10 μl 100 mM sodium orthovanadate and 50 μl 5M NaCl.
9. ATP/MnCl2 phosphorylation mix: mix 20 μL ATP, 400 μL 1M MnCl2 and 9.56 ml dH2O.
10. NUNC 96-well V bottom polypropylene plates (Applied Scientific Catalog #AS-72092).
12. 0.05% TBST Add 500 μL TWEEN to 1 liter TBS.
13. Rabbit polyclonal anti-phosphotyrosine serum (SUGEN, Inc.).
14. Goat anti-rabbit IgG peroxidase conjugate (Biosource, Catalog #ALI0404).
1. Coat Costar 96 well ELISA plates with 1 μg per well Poly(Glu-Tyr) in 100 μl PBS. Store overnight at 4° C.
2. Wash coated plates once with PBS.
3. Add 150 μL of 5%BSA/PBS Blocking Buffer to each well. Incubate, with shaking, for 1 hr at room temperature.
4. Wash plate 2× with PBS, then once with 50 mM Hepes. Pat plates on a paper towel to remove excess liquid and bubbles.
5. Add 25 μL of 0.4 mM test compound in 4% DMSO or 4% DMSO alone (controls) to plate.
6. Dilute purified GST-FGFR1 in Kinase Dilution Buffer (5 ng kinase/50 μl KDB/well).
7. Add 50 μL of diluted kinase to each well.
8. Start kinase reaction by adding 25 μl/well of freshly prepared ATP/Mn++ (0.4 ml 1M MnCl2, 40 μL 10 mM ATP, 9.56 ml dH2O), freshly prepared).
9. Stop reaction with 25 μL of 0.5M EDTA.
10. Wash plate 4× with fresh TBST.
11. Make up Antibody Dilution Buffer: For 50 ml, mix 5 ml of 5% BSA, 250 μl of 5% milk and 50 μl of 100 mM sodium vanadate, bring to final volume with 0.05% TBST.
12. Add 100 μl per well of anti-phosphotyrosine (1:10000 dilution in ADB). Incubate, with shaking for 1 hr. at room temperature.
14. Add 100 μl per well of Biosource Goat anti-rabbit IgG peroxidase conjugate (1:6000 dilution in ADB). Incubate, with shaking for 1 hr. at room temperature.
15. Wash as in step 10 and then with PBS to remove bubbles and excess TWEEN.
16. Add 100 μl of ABTS/H2O2 solution to each well.
17. Incubate, with shaking, for 10 to 20 minutes. Remove any bubbles.
18. Read assay on Dynatech MR7000 ELISA reader: test filter at 410 nM, reference filter at 630 nM.
(In general: In an ELISA, binding on a coated surface is turned into a signal by an enzyme label.)

Experiment [2] deals with T1, PDGFR (UniProt P09619).
T1 construct: PDGFR-β expressing NIH 3T3 cell lysate (SUGEN, Inc.)
The experiment is described as follows: PDGFR bioassay (ELISA, in vitro kinase activity). As to conditions: PDGFR-β expressing NIH 3T3 cell lysate, 20 μM ATP. The method, then: This assay is used to the in vitro kinase activity of PDGFR in an ELISA assay.
1. Corning 96-well ELISA plates
2. 28D4C10 monoclonal anti-PDGFR antibody (SUGEN, Inc.).
5. Blocking Buffer (same as for EGFR bioassay).
6. PDGFR-β expressing NIH 3T3 cell lysate (SUGEN, Inc.).
11. Kinase buffer phosphorylation mix: for 10 ml, mix 250 μl 1M TRIS, 200 μl 5M NaCl, 100 μl 1M MnCl2 and 501l 100 mM Triton X-100 in enough dH2O to make 10 ml.
12. NUNC 96-well V bottom polypropylene plates.
14. Rabbit polyclonal anti-phosphotyrosine serum (SUGEN, Inc.).
15. Goat anti-rabbit IgG peroxidase conjugate (Biosource Cat. No. ALI0404).
17. Hydrogen peroxide, 30% solution.
1. Coat Corning 96 well ELISA plates with […] 28D4C 10 in 100 μl PBS per well, hold overnight at 4° C.
2. Remove unbound 28D4C10 from wells by inverting plate to remove liquid. Wash 1× with dH2O. Pat the plate on a paper towel to remove excess liquid.
3. Add 150 μl of Blocking Buffer to each well. Incubate for 30 min. at room temperature with shaking.
4. Wash plate 3× with deionized water, then once with TBST. Pat plate on a paper towel to remove excess liquid and bubbles.
5. Dilute lysate in HNTG (10 μg lysate/100 μl HNTG).
6. Add 100 μl of diluted lysate to each well. Shake at room temperature for 60 min.
7. Wash plates as described in Step 4.
8. Add 80 μl working kinase buffer mix to ELISA plate containing captured PDGFR.
9. Dilute test compound 1:10 in TBS in 96-well polypropylene plates.
10. Add 10 μl diluted test compound to -ELISA plate. To control wells, add 10 μl TBS+10% DMSO. Incubate with shaking for 30 minutes at room temperature.
11. Add 10 μl ATP directly to all wells except negative control well (final well volume should be approximately 100 μl with 20 μM ATP in each well.) Incubate 30 minutes with shaking.
12. Stop reaction by adding 10 μl of EDTA solution to each well.
13. Wash 4× with deionized water, twice with TBST.
14. Add 100 μl anti-phosphotyrosine (1:3000 dilution in TBST) per well.
Incubate with shaking for 30-45 min. at room temperature.
16. Add 100 μl Biosource Goat anti-rabbit IgG peroxidase conjugate (1:2000 dilution in TBST) to each well. Incubate with shaking for 30 min. at room temperature.
18. Add 100 μl of ABTS/H2O2 solution to each well.
19. Incubate 10 to 30 minutes with shaking. Remove any bubbles.
20. If necessary stop reaction with the addition of 100 μl 0.2 M HCl per well.
21. Read assay on Dynatech MR7000 ELISA reader with test filter at 410 nM and reference filter at 630 nM.

The target of experiment [3] is P38 (Homo sapiens, UniProt Q16539). Description: P38 kinase inhibition.
Chain of P38 (Q16539 whole entry): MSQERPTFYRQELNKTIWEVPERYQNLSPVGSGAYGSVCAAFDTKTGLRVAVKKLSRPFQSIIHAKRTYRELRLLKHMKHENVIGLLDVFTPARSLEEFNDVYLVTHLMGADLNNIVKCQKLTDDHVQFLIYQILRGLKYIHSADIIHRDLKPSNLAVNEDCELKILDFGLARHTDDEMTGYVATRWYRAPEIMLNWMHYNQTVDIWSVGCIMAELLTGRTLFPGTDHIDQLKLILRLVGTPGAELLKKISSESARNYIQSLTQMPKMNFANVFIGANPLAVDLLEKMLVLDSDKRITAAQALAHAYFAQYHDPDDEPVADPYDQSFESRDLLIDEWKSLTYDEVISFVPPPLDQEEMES

Chain of FGFR1 (P11362 22-822, species assumed): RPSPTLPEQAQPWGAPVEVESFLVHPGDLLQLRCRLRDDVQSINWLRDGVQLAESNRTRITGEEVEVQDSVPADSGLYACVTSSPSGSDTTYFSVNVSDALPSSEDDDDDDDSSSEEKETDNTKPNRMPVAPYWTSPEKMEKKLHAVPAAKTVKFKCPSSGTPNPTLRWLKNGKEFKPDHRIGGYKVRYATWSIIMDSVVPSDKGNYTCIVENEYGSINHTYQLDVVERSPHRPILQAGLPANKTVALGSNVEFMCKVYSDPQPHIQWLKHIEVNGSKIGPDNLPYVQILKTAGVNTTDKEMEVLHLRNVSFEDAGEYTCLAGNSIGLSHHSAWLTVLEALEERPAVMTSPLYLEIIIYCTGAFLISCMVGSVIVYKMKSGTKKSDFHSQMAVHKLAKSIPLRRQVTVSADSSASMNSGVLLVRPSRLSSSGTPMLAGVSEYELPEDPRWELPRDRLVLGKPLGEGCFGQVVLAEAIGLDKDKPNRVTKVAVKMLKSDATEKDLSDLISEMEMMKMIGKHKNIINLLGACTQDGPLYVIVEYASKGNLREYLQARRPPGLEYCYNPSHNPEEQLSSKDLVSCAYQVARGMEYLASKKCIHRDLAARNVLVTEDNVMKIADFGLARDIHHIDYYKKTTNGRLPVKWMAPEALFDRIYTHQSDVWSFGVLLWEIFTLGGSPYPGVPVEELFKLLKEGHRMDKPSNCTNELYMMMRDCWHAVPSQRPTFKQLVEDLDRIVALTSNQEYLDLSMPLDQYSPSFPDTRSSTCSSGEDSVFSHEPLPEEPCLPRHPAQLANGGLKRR

By pIC50 is commonly meant the IC50 on a negative log10 scale, so that one unit is a factor of ten. A higher pIC50 goes with a low IC50. Regarding `CCN(CC)CCNC(=O)c1c(C)[nH]c(/C=C2\C(=O)Nc3cccc(-c4cccc(Cl)c4)c32)c1C` [Example 29, 5-[4-(3-Chloro-phenyl)-2-oxo-1,2-dihydro-indol-3-ylidenemethyl]-2,4-dimethyl-1H-pyrrole-3-carboxylic Acid (2-Diethylamino-ethyl)-amide], the pIC50 in experiment [1] is 7.54; in experiment [2], 6.16; in experiment [3], under 5.00.

Take `CCOC(=O)c1c(C)[nH]c(/C=C2\C(=O)Nc3cccc(-c4cccc(F)c4)c32)c1CCCN1CCN(C)CC1` [Example 18, 5-[4-(3-Fluoro-phenyl)-2-oxo-1,2-dihydro-indol-3-ylidenemethyl]-2-methyl-4-[3-(4-methyl-piperazin-1-yl)-propyl]-1H-pyrrole-3-carboxylic Acid Ethyl Ester]: the pIC50 in experiment [1] is 5.92; in experiment [2], 4.98; in experiment [3], 5.02.

Turning to `COc1ccc(-c2cccc3c2/C(=C/c2[nH]c(C)c(C(=O)NCCN4CCCC4)c2C)C(=O)N3)cc1` [Example 38, 5-[4-(4-Methoxy-phenyl)-2-oxo-1,2-dihydro-indol-3-ylidenemethyl]-2,4-dimethyl-1H-pyrrole-3-carboxylic Acid (2-Pyrrolidin-1-yl-ethyl)-amide], the negative-log IC50 (pIC50) in experiment [1] was 7.10; in experiment [2] it was 5.66; in experiment [3] it was under 5.00.

Take `Cc1[nH]c(/C=C2\C(=O)Nc3cccc(-c4ccc(Cl)cc4)c32)c(C)c1C(=O)N1CCN(C)CC1` [Example 20, 4-(4-Chloro-phenyl)-3-[3,5-dimethyl-4-(4-methyl-piperazine-1-carbonyl)-1H-pyrrol-2-ylmethylene]-1,3-dihydro-indol-2-one]: the results for the pIC50 in experiment [1], in experiment [2] and in experiment [3] were 5.94, 5.47 and under 5.00, respectively.
